The values that follow come from patent US10351547B2, “Somatostatin modulators and uses thereof” (priority 2016, dated 2019).

One assay deals with human SSTR2 (Homo sapiens (Human), UniProt P30874). The assay can be described thus: Human SSTR2 intracellular cAMP functional assay for agonists (HTRF). It is filed as cell-based.
Sequence of human SSTR2 (P30874 whole entry): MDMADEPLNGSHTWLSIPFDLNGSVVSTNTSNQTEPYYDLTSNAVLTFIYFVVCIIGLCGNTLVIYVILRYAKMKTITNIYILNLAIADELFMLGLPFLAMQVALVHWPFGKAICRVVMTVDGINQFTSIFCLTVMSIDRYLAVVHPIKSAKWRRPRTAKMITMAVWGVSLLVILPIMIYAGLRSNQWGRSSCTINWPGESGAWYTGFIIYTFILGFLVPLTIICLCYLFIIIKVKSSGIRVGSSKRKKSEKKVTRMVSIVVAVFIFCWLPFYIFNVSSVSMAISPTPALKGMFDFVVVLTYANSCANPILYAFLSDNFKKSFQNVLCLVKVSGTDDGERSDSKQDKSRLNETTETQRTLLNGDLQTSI
Conditions: not given
In short, it runs like this:
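Cells bearing human SSTR2 exposed to compound for 20 minutes at 37 °C; after lysis, cAMP measured by time-resolved fluorescence (HTRF) and converted via a standard curve. EC50 calculated from cAMP versus compound concentration.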
For `CON=Cc1cc(-c2ccc3ncc(-c4cc(C)cc(F)c4)c(N4CCC(N)CC4)c3c2)ccc1O` [2-213, 4-[4-(4-aminopiperidin-1-yl)-3-(3-fluoro-5-methylphenyl)quinolin-6-yl]-2-[(methoxyimino)methyl]phenol], the EC50 is 10 to 100 nM.
On the same count and under the same terms, the figure for `CONC(=O)Nc1nccc(C)c1-c1ccc2ncc(-c3cc(C)cc(F)c3)c(N3CCC(N)CC3)c2c1` [2-215, 1-{3-[4-(4-aminopiperidin-1-yl)-3-(3-fluoro-5-methylphenyl)quinolin-6-yl]-4-methylpyridin-2-yl}-3-methoxyurea] is 10 to 100 nM; for `CONC(=O)Nc1nc(C)ccc1-c1ccc2ncc(-c3cc(C)cc(F)c3)c(N3CCC(N)CC3)c2c1` [2-239, 1-{3-[4-(4-aminopiperidin-1-yl)-3-(3-fluoro-5-methylphenyl)quinolin-6-yl]-6-methylpyridin-2-yl}-3-methoxyurea] it is 10 to 100 nM; for `CONC(=O)Nc1ccc(-c2ccc3ncc(-c4cc(C)cc(F)c4)c(N4CCC(N)CC4)c3c2)cc1` [2-240, 1-{4-[4-(4-aminopiperidin-1-yl)-3-(3-fluoro-5-methylphenyl)quinolin-6-yl]phenyl}-3-methoxyurea] it is 10 to 100 nM.
In turn, `N#Cc1cccc(-c2cnc3ncc(-c4cc(F)cc(F)c4)c(N4CCC(N)CC4)c3c2)c1O` [4-1, 3-[5-(4-aminopiperidin-1-yl)-6-(3,5-difluorophenyl)-1,8-naphthyridin-3-yl]-2-hydroxybenzonitrile] registered an EC50 of 10 to 100 nM.

The assay is the same for the next values; noted with them: CHO-K1 cells stably expressing human SSTR2; NKH477-stimulated cAMP; read-out: EC50 (inhibition of cAMP activities via human SST2R).
`CONC(=O)Nc1nn(C)cc1-c1ccc2ncc(-c3cc(C)cc(F)c3)c(N3CCC(N)CC3)c2c1` [2-212, 1-{4-[4-(4-aminopiperidin-1-yl)-3-(3-fluoro-5-methylphenyl)quinolin-6-yl]-1-methyl-1H-pyrazol-3-yl}-3-methoxyurea]: the concentration for a half-maximal effect (EC50) was under 10 nM.
Same read-out and setting: the figure for `COC(=O)Nc1nn(C)cc1-c1ccc2ncc(-c3cc(C)cc(F)c3)c(N3CCC(N)CC3)c2c1` [2-214, methyl N-{4-[4-(4-aminopiperidin-1-yl)-3-(3-fluoro-5-methylphenyl)quinolin-6-yl]-1-methyl-1H-pyrazol-3-yl}carbamate] is under 10 nM; for `Cc1cc(F)cc(-c2cnc3ccc(-c4cc(F)cc(F)c4NC(=O)NOC(C)C)cc3c2N2CCC(N)CC2)c1` [2-216, 1-{2-[4-(4-aminopiperidin-1-yl)-3-(3-fluoro-5-methylphenyl)quinolin-6-yl]-4,6-difluorophenyl}-3-(propan-2-yloxy)urea] it is under 10 nM.
Consider `CONC(=O)Nc1ccc(C#N)cc1-c1ccc2ncc(-c3cc(C)cc(F)c3)c(N3CCC(N)CC3)c2c1` [2-222], for which the EC50 was under 10 nM.
The same measure, in the same setting: with `CONC(=O)Nc1cc(F)cc(-c2ccc3ncc(-c4cc(C)cc(F)c4)c(N4CCC(N)CC4)c3c2)c1` [2-223, 1-{3-[4-(4-aminopiperidin-1-yl)-3-(3-fluoro-5-methylphenyl)quinolin-6-yl]-5-fluorophenyl}-3-methoxyurea] the figure was under 10 nM; with `CONC(=O)Nc1ncccc1-c1ccc2ncc(-c3cc(C)cc(F)c3)c(N3CCC(N)CC3)c2c1` [2-226, 1-{3-[4-(4-aminopiperidin-1-yl)-3-(3-fluoro-5-methylphenyl)quinolin-6-yl]pyridin-2-yl}-3-methoxyurea], under 10 nM.
Turning to `CCONC(=O)Nc1c(F)cc(F)cc1-c1ccc2ncc(-c3cc(C)cc(F)c3)c(N3CCC(N)CC3)c2c1` [2-228, 1-{2-[4-(4-aminopiperidin-1-yl)-3-(3-fluoro-5-methylphenyl)quinolin-6-yl]-4,6-difluorophenyl}-3-ethoxyurea], the EC50 was under 10 nM.
As for `COCCNc1nn(C)cc1-c1ccc2ncc(-c3cc(C)cc(F)c3)c(N3CCC(N)CC3)c2c1` [2-229, 1-[3-(3-fluoro-5-methylphenyl)-6-{3-[(2-methoxyethyl)amino]-1-methyl-1H-pyrazol-4-yl}quinolin-4-yl]piperidin-4-amine], the EC50 was under 10 nM.
The same measure, in the same setting: with `COCC(=O)Nc1c(F)cc(F)cc1-c1ccc2ncc(-c3cc(C)cc(F)c3)c(N3CCC(N)CC3)c2c1` [2-230, N-{2-[4-(4-aminopiperidin-1-yl)-3-(3-fluoro-5-methylphenyl)quinolin-6-yl]-4,6-difluorophenyl}-2-methoxyacetamide] the figure was under 10 nM; with `N#CCOc1c(C#N)cccc1-c1ccc2ncc(-c3cc(F)cc(F)c3)c(N3CCC(N)CC3)c2c1` [2-231, 3-[4-(4-aminopiperidin-1-yl)-3-(3,5-difluorophenyl)quinolin-6-yl]-2-(cyanomethoxy)benzonitrile], under 10 nM; with `Cc1cc(F)cc(-c2cnc3ccc(-c4cc(F)cc(F)c4NC(=O)NOCC(F)(F)F)cc3c2N2CCC(N)CC2)c1` [2-233, 1-{2-[4-(4-aminopiperidin-1-yl)-3-(3-fluoro-5-methylphenyl)quinolin-6-yl]-4,6-difluorophenyl}-3-(2,2,2-trifluoroethoxy)urea], under 10 nM.
With `COCCNc1ncc(F)cc1-c1ccc2ncc(-c3cc(C)cc(F)c3)c(N3CCC(N)CC3)c2c1` [2-234, 3-[4-(4-aminopiperidin-1-yl)-3-(3-fluoro-5-methylphenyl)quinolin-6-yl]-5-fluoro-N-(2-methoxyethyl)pyridin-2-amine], the EC50 was under 10 nM.
Same read-out and setting: the figure for `CONC(=O)Nc1c(F)cc(C#N)cc1-c1ccc2ncc(-c3cc(C)cc(F)c3)c(N3CCC(N)CC3)c2c1` [2-237, 1-{2-[4-(4-aminopiperidin-1-yl)-3-(3-fluoro-5-methylphenyl)quinolin-6-yl]-4-cyano-6-fluorophenyl}-3-methoxyurea] is under 10 nM; for `N#Cc1ccc(NC(=O)NOCC(F)(F)F)c(-c2ccc3ncc(-c4cc(F)cc(F)c4)c(N4CCC(N)CC4)c3c2)c1` [2-238, 1-{2-[4-(4-aminopiperidin-1-yl)-3-(3,5-difluorophenyl)quinolin-6-yl]-4-cyanophenyl}-3-(2,2,2-trifluoroethoxy)urea] it is under 10 nM; for `NC1CCN(c2c(-c3cc(F)cc(F)c3)cnc3ccc(-c4c(O)c(Br)cc(F)c4F)cc23)CC1` [2-241, 2-[4-(4-aminopiperidin-1-yl)-3-(3,5-difluorophenyl)quinolin-6-yl]-6-bromo-3,4-difluorophenol] it is under 10 nM.
Consider `COCCNc1ncc(C#N)cc1-c1ccc2ncc(-c3cc(C)cc(F)c3)c(N3CCC(N)CC3)c2c1` [2-242, 5-[4-(4-aminopiperidin-1-yl)-3-(3-fluoro-5-methylphenyl)quinolin-6-yl]-6-[(2-methoxyethyl)amino]pyridine-3-carbonitrile], for which the EC50 was under 10 nM.
With `Oc1ncccc1-c1ccc2ncc(-c3cc(F)cc(F)c3)c(N3CC[C@H]4NCCO[C@@H]4C3)c2c1` [2-248, 3-{4-[trans-octahydro-1H-pyrido[3,4-b]morpholin-6-yl]-3-(3,5-difluorophenyl)quinolin-6-yl}pyridin-2-ol], the EC50 is under 10 nM.
For the compound `Cc1ccnc(-c2ccc3ncc(-c4cc(F)cc(F)c4)c(N4CCC(N)CC4)c3c2)c1N` [2-250, 2-[4-(4-aminopiperidin-1-yl)-3-(3,5-difluorophenyl)quinolin-6-yl]-4-methylpyridin-3-amine], the EC50 was under 10 nM.
On the same count and under the same terms, the figure for `N#Cc1cncc(-c2ccc3ncc(-c4cc(F)cc(F)c4)c(N4CC[C@H]5NCCO[C@@H]5C4)c3c2)c1O` [2-254, 5-{4-[trans-octahydro-1H-pyrido[3,4-b]morpholin-6-yl]-3-(3,5-difluorophenyl)quinolin-6-yl}-4-hydroxypyridine-3-carbonitrile] is 10 to 100 nM; for `Cc1ccnc(-c2ccc3ncc(-c4cc(F)cc(F)c4)c(N4CC[C@H]5NCCO[C@@H]5C4)c3c2)c1O` [2-258, 2-{4-[trans-octahydro-1H-pyrido[3,4-b]morpholin-6-yl]-3-(3,5-difluorophenyl)quinolin-6-yl}-4-methylpyridin-3-ol] it is under 10 nM.
Turning to `Cc1cc(F)cc(-c2cnc3ccc(-c4nccc(C#N)c4N)cc3c2N2CC(C3COCCN3)C2)c1` (centres unmarked) [2-282, 3-amino-2-[3-(3-fluoro-5-methylphenyl)-4-[3-(morpholin-3-yl)azetidin-1-yl]quinolin-6-yl]pyridine-4-carbonitrile], the EC50 is under 10 nM.
Turning to `Cc1cc(F)cc(-c2cnc3ccc(-c4cc(F)cc(C(N)=O)c4)nc3c2N2CCC(N)CC2)c1` [3-1, 3-[8-(4-aminopiperidin-1-yl)-7-(3-fluoro-5-methylphenyl)-1,5-naphthyridin-2-yl]-5-fluorobenzamide], the EC50 was under 10 nM.
On the same count and under the same terms, the figure for `Cc1cc(F)cc(-c2cnc3ccc(-c4cc(F)cc5[nH]c(=O)[nH]c45)nc3c2N2CCC(N)CC2)c1` [3-3, 4-[8-(4-aminopiperidin-1-yl)-7-(3-fluoro-5-methylphenyl)-1,5-naphthyridin-2-yl]-6-fluoro-2,3-dihydro-1H-1,3-benzodiazol-2-one] is under 10 nM; for `Cc1cc(F)cc(-c2cnc3ccc(-c4ccc5[nH]c(=O)[nH]c5c4)nc3c2N2CCC(N)CC2)c1` [3-4, 5-[8-(4-aminopiperidin-1-yl)-7-(3-fluoro-5-methylphenyl)-1,5-naphthyridin-2-yl]-2,3-dihydro-1H-1,3-benzodiazol-2-one] it is under 10 nM.
The same measure, in the same setting: with `Cc1cc(F)cc(-c2cnc3ccc(-c4cc(F)c5[nH]c(=O)[nH]c5c4)nc3c2N2CCC(N)CC2)c1` [3-5, 6-[8-(4-aminopiperidin-1-yl)-7-(3-fluoro-5-methylphenyl)-1,5-naphthyridin-2-yl]-4-fluoro-2,3-dihydro-1H-1,3-benzodiazol-2-one] the figure was under 10 nM; with `NC1CCN(c2c(-c3cc(F)cc(F)c3)cnc3ccc(-c4cc(F)c5[nH]c(=O)[nH]c5c4)nc23)CC1` [3-9, 6-[8-(4-aminopiperidin-1-yl)-7-(3,5-difluorophenyl)-1,5-naphthyridin-2-yl]-4-fluoro-2,3-dihydro-1H-1,3-benzodiazol-2-one], under 10 nM.
The same measure, in the same setting: the figure for `Cc1cc(F)cc(-c2cnc3ncc(-c4cccc(C#N)c4O)cc3c2N2CCC(N)CC2)c1` [4-2, 3-[5-(4-aminopiperidin-1-yl)-6-(3-fluoro-5-methylphenyl)-1,8-naphthyridin-3-yl]-2-hydroxybenzonitrile] is under 10 nM.

One may read the EC50 as the concentration needed to bring the measured effect to its halfway point.
